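Growth conditions: 96-well plates. Treatment: test compound, 48 hours, 5 concentrations. Analysis: linear interpolation between bracketing concentrations; unreached endpoints set to highest concentration. GI50 is the concentration that inhibits growth by half. TGI denotes the concentration required for complete inhibition of growth.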 Bounds are passed on as bounds.

Consider eight molecules from PubChem BioAssay (NCI).

Common to all, as to experiment: growth of human tumour cells (NCI), 48 h
Assay [1] deals with CCRF-CEM leukemia.
Assay [2] deals with UACC-62 melanoma.
Assay [3] deals with UACC-257 melanoma.
For assay [4], the system named is CAKI-1 renal.
Assay [5] deals with SF-268 CNS.
The subject of assay [6] is HCT-15 colon.
Assay [7] has as its system SK-MEL-2 melanoma.
For assay [8], the system named is OVCAR-8 ovarian.
For assay [9], the system named is K-562 leukemia.
Assay [10] has as its system LOX IMVI melanoma.

With `O=c1oc2ccc(F)cc2c(=O)n1-c1ccc(I)cc1F`, the GI50 in assay [1] was 1.83 µM; in [2], 0.293 µM; in assay [3] it was 0.432 µM; in assay [4], 0.337 µM; in assay [5], 0.435 µM; in [6], 0.471 µM. The GI50 in assay [7] is 0.344 µM; in assay [8], 0.872 µM; in assay [9], 0.397 µM; in assay [10] it was 0.374 µM. Further, the TGI in assay [1] came out at 52 µM; in assay [2] it was 1.1 µM; in assay [3], 4.79 µM; in [4], 2.19 µM; in assay [5], 8.25 µM; in assay [6], 10.9 µM. Besides, the TGI was 1.9 µM in assay [7], above 41.9 µM in assay [8], above 100 µM in assay [9] and 2.29 µM in assay [10].

For the molecule `COc1cc(OCCCN2CCCC2)ccc1Nc1ncc(Cl)c(Nc2ccccc2P(C)(C)=O)n1`, the GI50 in [1] is 2.09 µM; in assay [2], 2.43 µM; in [3] it was 6.42 µM; in [4] it was 2.02 µM; in assay [5] it was 2.49 µM; in [6], 3.67 µM. For the same molecule, the GI50 was 2.24 µM in [7], 3.65 µM in [8], 4.43 µM in assay [9] and 1.32 µM in assay [10]. Besides, the TGI in [1] was 15.8 µM; in assay [2], 12.9 µM; in assay [3], 24 µM; in assay [4] it was 5.64 µM; in assay [5], 10.6 µM; in assay [6] it was above 46.6 µM. Moreover, the TGI was determined as 6.21 µM in assay [7], 38.8 µM in [8], 28.5 µM in [9] and 4.4 µM in assay [10].

`Cc1ccc(NC(=O)CCc2nnc3s/c(=C\C=C\c4ccccc4)c(=O)n23)cc1`: the TGI in assay [1] is 74.3 µM; in assay [2] it was above 100 µM; in assay [3], above 100 µM; in assay [4] it was above 100 µM; in [5], above 100 µM; in assay [6] it was above 100 µM. Also, the TGI in assay [7] was above 91.9 µM; in [8] it was 77.4 µM; in [9], above 100 µM; in assay [10] it was above 86.8 µM.

As to `CO[C@H]1/C=C/O[C@@]2(C)Oc3c(C)c(O)c4c(O)c(c(/C=N/N5C(C)CN(Cc6ccc(C#N)cc6)CC5C)c(O)c4c3C2=O)NC(=O)/C(C)=C\C=C\[C@H](C)[C@H](O)[C@@H](C)[C@@H](O)[C@@H](C)[C@H](OC(C)=O)[C@@H]1C` (stereo partly drawn), the GI50 was 2.12 µM in assay [1]; 3.88 µM in [2]; 6.35 µM in assay [3]; 7.65 µM in assay [4]; 9.58 µM in assay [5]; 6.01 µM in [6]. In addition, the GI50 is 7.92 µM in assay [7], 10.4 µM in assay [8], 6.71 µM in [9] and 6.84 µM in [10]. Moreover, the TGI stood at 12.3 µM in [1]; 10.4 µM in [2]; 15.8 µM in [3]; 17.8 µM in assay [4]; 24.1 µM in assay [5]; 14 µM in [6]. Moreover, the TGI in [7] was determined as 15.9 µM; in assay [8] it was 38.9 µM; in assay [9], 25.3 µM; in [10], 13.4 µM.

For the molecule `COc1ccc2c(c1)/C(=C\c1c(-c3ccccc3)nc3sccn13)C(=O)N2`, the GI50 in assay [1] was 5.5 µM; in assay [2], 3.52 µM; in assay [3], 28.7 µM; in assay [4], 0.0357 µM; in assay [5] it was 2.11 µM; in assay [7], 18 µM. The GI50 in assay [8] was 20.9 µM; in [9], 3.98 µM; in assay [10] it was 6.09 µM. Further, the TGI is above 100 µM in [1]; 15.6 µM in [2]; 89.3 µM in assay [3]; 0.37 µM in assay [4]; 13.4 µM in assay [5]; above 35.6 µM in assay [6]. The TGI was 44.5 µM in assay [7], above 72.2 µM in [8], above 41.9 µM in assay [9] and 22.2 µM in [10].

`C=CCN=C1NC(=O)C(CC(=O)Nc2cccc(Cl)c2)S1` (stereo not drawn): the TGI in assay [1], in assay [2], in [3], in assay [4], in assay [5] and in assay [6] was above 100 µM throughout. Also, the TGI in assay [7], in assay [8], in assay [9] and in assay [10] was above 100 µM in each case.

On to `O=C(O)c1nn(-c2ccc(Cl)cc2)c2c1C(=O)c1ccccc1C2=O`, for which the TGI in assay [1], in [2], in assay [3], in assay [4], in assay [5] and in assay [6] was above 100 µM throughout. For the same molecule, the TGI in assay [7], in assay [8], in assay [9] and in assay [10] was above 100 µM each time.

For `Cn1cnc(SC2=CC(=O)C=C3S[C@H]4C[C@@]23c2c(c(O)c3c5c2=NCCC=5C=N3)N4)c1CC(N)C(=O)O` (stereo partly drawn), the GI50 in [1] is 3.76 µM; in assay [2], 7.31 µM; in [3] it was 11.6 µM; in assay [4] it was 18.7 µM; in assay [5] it was 12.4 µM; in [6], 18.4 µM. Further, the GI50 in assay [7] was 9.62 µM; in [8] it was 3.81 µM; in [10], 4.64 µM. For the same molecule, the TGI in assay [1] worked out at 44.1 µM; in assay [2], 19.6 µM; in assay [3] it was 23.8 µM; in [4], 33.3 µM; in assay [5] it was 26.1 µM; in assay [6] it was 33.7 µM. The TGI in assay [7] is 24.7 µM; in assay [8] it was 14.5 µM; in assay [9], above 87 µM; in assay [10], 18.6 µM.
